Structures are written as SMILES.

Experimental findings from the supplement of paper PMC11061612 are described below.

One experiment concerns D-263MG (Glioblastoma). Put plainly: Bliss excess, mean over the matrix (fraction); higher = more synergy. The essentials: (§1)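 Cell lines in DMEM/F12 or RPMI with 10% FBS were plated in 1536-well plates, held 24 hours at 37°C, 5% CO2, then given two-drug dose matrices for 72 hours (DMSO typically 0.2%). Viability was read by CellTiter-Glo 2.0 luminescence and scaled as inhibition from 0 (vehicle wells) to 1 (blank wells). Combination Emax is the second-highest inhibition in the matrix; Bliss excess is observed combination effect minus expected EA + EB − EA·EB, EA and EB being single-agent effects.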

A further experiment concerns ACHN (Kidney Carcinoma). Put plainly: combination Emax (second highest fraction inhibited in the dose matrix, 72 h); higher = more inhibition; extreme values may be limits of the assay. The method in brief:
as §1

The next experiment relates to EW-24 (Ewing's Sarcoma). The description is as above. The essentials: as §1
In experiment [1] the test system is EoL-1-cell (Acute Myeloid Leukemia). The description is as above. The essentials: as §1
Experiment [2] relates to HGC-27 (Gastric Carcinoma). Described as above. The essentials: as §1
In experiment [3] the test system is HOP-62 (Lung Adenocarcinoma). The description is as above. The essentials:
as §1

For experiment [4], the system named is Hs-766T (Pancreatic Carcinoma). The experiment is described as above. The essentials: as §1
Experiment [5] concerns KARPAS-299 (T-Cell Non-Hodgkin's Lymphoma). The experiment is described as above. The essentials: as §1
Experiment [6] deals with KMOE-2 (Acute Myeloid Leukemia). The experiment is described as above. The method in brief: as §1
Experiment [7] deals with KYSE-450 (Esophageal Squamous Cell Carcinoma). Described as above. The method in brief:
as §1

The next experiment has as its system NB69 (Neuroblastoma). The description is as above. The method in brief:
as §1

The subject of experiment [8] is NCI-H1915 (Non-Small Cell Lung Carcinoma). The description is as above. The method in brief:
as §1

The test system of experiment [9] is NCI-H358 (Lung Adenocarcinoma). The description is as above. The method in brief: as §1
Experiment [10] has as its system NCI-H727 (Other Solid Carcinomas). The experiment is described as above. The essentials:
as §1

In experiment [11] the test system is OE19 (Esophageal Adenocarcinoma). The description is as above. The essentials:
as §1

For experiment [12], the system named is OVCAR-4 (Ovarian Carcinoma). The description is as above. The method in brief: as §1
The subject of experiment [13] is RF-48 (B-Cell Non-Hodgkin's Lymphoma). The experiment is described as above. The method in brief: as §1
Experiment [14] relates to SCC-15 (Oral Cavity Carcinoma). The experiment is described as above. The method in brief:
as §1

Experiment [15] relates to TE-1 (Esophageal Squamous Cell Carcinoma). Described as above. The method in brief: as §1
The test system of another experiment is UACC-62 (Melanoma). The experiment is described as above. The essentials: as §1
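Wherever Bliss excess, mean over the matrix is given: after 72 h of two-drug dosing.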

As for `CC1(C)CCC(CN2CCN(c3ccc(C(=O)NS(=O)(=O)c4ccc(NCC5CCOCC5)c([N+](=O)[O-])c4)c(Oc4cnc5[nH]ccc5c4)c3)CC2)=C(c2ccc(Cl)cc2)C1` [Venetoclax] + CN(C)CCCOc1ccc(-c2ccc3ncc4c(c3c2)n(C2CCOCC2)c(=O)n4C)cn1 [AZD0156] (first compound max 1 µM, 7x7, partner max 1 µM), the Bliss excess in the experiment with D-263MG (Glioblastoma) was determined as 0.0045. Besides, the “combination Emax” value with ACHN (Kidney Carcinoma) is 0.78; in the experiment with EW-24 (Ewing's Sarcoma), 0.323; in experiment [1], 0.986; in [2] it was 0.362; in experiment [3] it was 0.242; in experiment [4] it was 0.41. For the same compound, the “combination Emax” value was found to be 0.807 in [5]; 0.207 in [6]; 0.15 in [7]; 0.329 with NB69 (Neuroblastoma); 0.285 in experiment [8]; 0.325 in [9]. Moreover, the “combination Emax” value in experiment [10] stood at 0.317; in [11], 0.281; in experiment [12] it was 0.173; in experiment [13] it was 0.212; in [14] it was 0.245; in experiment [15] it was 0.098. Moreover, the “combination Emax” value in the experiment with UACC-62 (Melanoma) was 0.487.
In the case of `CC1(C)CCC(CN2CCN(c3ccc(C(=O)NS(=O)(=O)c4ccc(NCC5CCOCC5)c([N+](=O)[O-])c4)c(Oc4cnc5[nH]ccc5c4)c3)CC2)=C(c2ccc(Cl)cc2)C1` [Venetoclax] + COc1cc(Nc2ncc3c(n2)-c2ccc(Cl)cc2C(c2c(F)cccc2OC)=NC3)ccc1C(=O)O [Alisertib] (first compound max 1 µM, 7x7, partner max 10 µM), in the experiment on D-263MG (Glioblastoma), the Bliss excess was 0.0522. In addition, the “combination Emax” value in the experiment on ACHN (Kidney Carcinoma) turned out to be 0.698; in the experiment with EW-24 (Ewing's Sarcoma), 0.428; in experiment [1], 1; in [2], 0.919; in [3] it was 0.456; in experiment [4], 0.393. Further, the “combination Emax” value worked out at 0.762 in experiment [5]; 0.928 in experiment [6]; 0.437 in [7]; 0.915 in the experiment with NB69 (Neuroblastoma); 0.455 in experiment [8]; 0.442 in experiment [9]. The “combination Emax” value is 0.326 in [10]; 0.785 in [11]; 0.344 in experiment [12]; 0.59 in experiment [13]; 0.378 in experiment [14]; 0.635 in [15]. The “combination Emax” value with UACC-62 (Melanoma) worked out at 0.314.
Consider `CC1(C)CCC(CN2CCN(c3ccc(C(=O)NS(=O)(=O)c4ccc(NCC5CCOCC5)c([N+](=O)[O-])c4)c(Oc4cnc5[nH]ccc5c4)c3)CC2)=C(c2ccc(Cl)cc2)C1` [Venetoclax] + C[C@@H]1COCCN1C2=NC(=NC(=C2)C3(CC3)[S@](=N)(=O)C)C4=C5C=CNC5=NC=C4 [AZD6738] (first compound max 1 µM, 7x7, partner max 10 µM), for which the Bliss excess in the experiment on D-263MG (Glioblastoma) turned out to be 0.0199. Further, the “combination Emax” value in the experiment on ACHN (Kidney Carcinoma) amounted to 0.937; in the experiment on EW-24 (Ewing's Sarcoma) it was 0.731; in [1], 1; in experiment [2], 0.8; in experiment [3], 0.624; in experiment [4], 0.565. Moreover, the “combination Emax” value is 0.954 in [5]; 0.73 in experiment [6]; 0.519 in experiment [7]; 0.884 with NB69 (Neuroblastoma); 0.538 in experiment [8]; 0.731 in experiment [9]. Further, the “combination Emax” value was 0.616 in [10]; 0.673 in experiment [11]; 0.684 in experiment [12]; 0.562 in experiment [13]; 0.442 in experiment [14]; 0.543 in experiment [15]. In addition, in the experiment on UACC-62 (Melanoma), the “combination Emax” value came to 0.481.
`CC1(C)CCC(CN2CCN(c3ccc(C(=O)NS(=O)(=O)c4ccc(NCC5CCOCC5)c([N+](=O)[O-])c4)c(Oc4cnc5[nH]ccc5c4)c3)CC2)=C(c2ccc(Cl)cc2)C1` [Venetoclax] + C[C@@H](Nc1cc(F)cc(F)c1)c1cc(C(=O)N(C)C)cc2c(=O)cc(N3CCOCC3)oc12 [AZD8186] (first compound max 1 µM, 7x7, partner max 3 µM): the Bliss excess in the experiment with D-263MG (Glioblastoma) was -0.0044. For the same compound, the “combination Emax” value was 0.842 with ACHN (Kidney Carcinoma); 0.26 in the experiment with EW-24 (Ewing's Sarcoma); 1 in [1]; 0.54 in experiment [2]; 0.264 in experiment [3]; 0.349 in [4]. Further, the “combination Emax” value in experiment [5] stood at 0.829; in experiment [6], 0.323; in experiment [7], 0.118; in the experiment on NB69 (Neuroblastoma) it was 0.998; in [8] it was 0.118; in experiment [9], 0.149. Also, the “combination Emax” value stood at 0.274 in [10]; 0.306 in experiment [11]; 0.138 in experiment [12]; 0.345 in experiment [13]; 0.166 in [14]; 0.217 in experiment [15]. The “combination Emax” value with UACC-62 (Melanoma) was 0.398.
Turning to `CC1(C)CCC(CN2CCN(c3ccc(C(=O)NS(=O)(=O)c4ccc(NCC5CCOCC5)c([N+](=O)[O-])c4)c(Oc4cnc5[nH]ccc5c4)c3)CC2)=C(c2ccc(Cl)cc2)C1` [Venetoclax] + Cc1cc2ncnn2cc1Nc1ncc2c(n1)n(C1CCOCC1)c(=O)n2C [AZD7648] (first compound max 1 µM, 7x7, partner max 10 µM), the Bliss excess with D-263MG (Glioblastoma) was -0.0572. For the same compound, the “combination Emax” value in the experiment on ACHN (Kidney Carcinoma) was determined as 0.725; in the experiment with EW-24 (Ewing's Sarcoma), 0.38; in [1], 0.996; in [2], 0.485; in experiment [3] it was 0.172; in experiment [4], 0.372. The “combination Emax” value stood at 0.837 in [5]; 0.427 in experiment [6]; 0.14 in experiment [7]; 0.523 with NB69 (Neuroblastoma); 0.641 in [8]; 0.293 in experiment [9]. Further, the “combination Emax” value amounted to 0.25 in experiment [10]; 0.281 in experiment [11]; 0.19 in experiment [12]; 0.321 in [13]; 0.212 in [14]; 0.0373 in experiment [15]. Besides, in the experiment with UACC-62 (Melanoma), the “combination Emax” value was determined as 0.221.
`CC1(C)CCC(CN2CCN(c3ccc(C(=O)NS(=O)(=O)c4ccc(NCC5CCOCC5)c([N+](=O)[O-])c4)c(Oc4cnc5[nH]ccc5c4)c3)CC2)=C(c2ccc(Cl)cc2)C1` [Venetoclax] + Cn1cnc2c(F)c(Nc3ccc(Br)cc3Cl)c(C(=O)NOCCO)cc21 [Selumetinib] (first compound max 1 µM, 7x7, partner max 3 µM): the Bliss excess in the experiment with D-263MG (Glioblastoma) was -0.0292. Moreover, the “combination Emax” value with ACHN (Kidney Carcinoma) worked out at 0.688; in the experiment on EW-24 (Ewing's Sarcoma), 0.154; in experiment [1], 1; in experiment [2], 0.142; in [3] it was 0.435; in [4] it was 0.502. In addition, the “combination Emax” value in [5] was determined as 0.812; in [6], 0.992; in [7], 0.109; in the experiment on NB69 (Neuroblastoma), 0.919; in [8], 0.423; in [9] it was 0.343. For the same compound, the “combination Emax” value is 0.601 in experiment [10]; 0.182 in [11]; 0.209 in experiment [12]; 0.286 in [13]; 0.264 in [14]; 0.245 in experiment [15]. Moreover, the “combination Emax” value with UACC-62 (Melanoma) was 0.767.
